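Briefly, cells in 96-well plates were exposed to five compound concentrations for 48 h, and endpoints were estimated by linear interpolation. GI50 marks 50% less growth. At the TGI there is no net growth.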
What was measured:
Assay in all cases: NCI anticancer screen, dose series, 48 h
[1] = system: SNB-75 CNS
[2] = system: MCF7 breast
[3] = system: UO-31 renal
[4] = system: MALME-3M melanoma
[5] = system: SNB-19 CNS
[6] = system: LOX IMVI melanoma
[7] = system: COLO 205 colon
[8] = system: SF-539 CNS
[9] = system: NCI-H522 lung
[10] = system: SF-295 CNS
[11] = system: NCI-H460 lung
[12] = system: KM12 colon
[13] = system: SR leukemia
[14] = system: NCI-H226 lung
[15] = system: MDA-MB-468 breast
[16] = system: HS 578T breast
[17] = system: HOP-62 NSCLC
[18] = system: HCT-116 colon
[19] = system: HOP-92 NSCLC
[20] = system: RXF 393 renal
[21] = system: T-47D breast
[22] = system: OVCAR-4 ovarian
[23] = system: IGROV1 ovarian
[24] = system: UACC-62 melanoma
[25] = system: SW-620 colon
[26] = system: NCI/ADR-RES ovarian
[27] = system: NCI-H23 lung
[28] = system: M14 melanoma
[29] = system: CAKI-1 renal
[30] = system: CCRF-CEM leukemia
[31] = system: HT29 colon
[32] = system: HL-60(TB) leukemia
[33] = system: ACHN renal
[34] = system: BT-549 breast
[35] = system: K-562 leukemia
[36] = system: SK-MEL-2 melanoma
[37] = system: SF-268 CNS
[38] = system: A549 NSCLC
[39] = system: MDA-MB-435
[40] = system: MDA-MB-231 breast
[41] = system: TK-10 renal
[42] = system: PC-3 prostate
[43] = system: OVCAR-5 ovarian
[44] = system: HCT-15 colon
[45] = system: EKVX NSCLC
[46] = system: SK-MEL-5 melanoma
[47] = system: 786-0 renal
[48] = system: MOLT-4 leukemia
[49] = system: SN12C renal
[50] = system: OVCAR-3 ovarian
[51] = system: DU-145 prostate
[52] = system: SK-MEL-28 melanoma
[53] = system: A498 renal
[54] = system: HCC-2998 colon
[55] = system: SK-OV-3 ovarian
[56] = system: OVCAR-8 ovarian
[57] = system: U251 CNS
[58] = system: UACC-257 melanoma
[59] = system: RPMI-8226 leukemia

## CCCCSc1nc(Nc2ccc(/C(C)=N/NC(N)=S)cc2)c(C#N)c(-c2ccc(OC)cc2)n1
[1]
  GI50: 10.4 µM
  TGI: 78.3 µM
[2]
  GI50: 17.1 µM
  TGI: > 100 µM
[3]
  GI50: 2.81 µM
  TGI: 18.6 µM
[4]
  GI50: 5.85 µM
  TGI: 20 µM
[5]
  GI50: 14.3 µM
  TGI: 27.3 µM
[6]
  GI50: 3.9 µM
  TGI: 17.9 µM
[7]
  GI50: > 100 µM
  TGI: > 100 µM
[8]
  GI50: 3.14 µM
  TGI: 12.8 µM
[9]
  GI50: 13.9 µM
  TGI: 28.6 µM
[10]
  GI50: 10.1 µM
  TGI: 22.6 µM
[11]
  GI50: 9.33 µM
  TGI: 31.1 µM
[12]
  GI50: > 100 µM
  TGI: > 100 µM
[13]
  GI50: 57.1 µM
  TGI: > 100 µM
[14]
  GI50: 11.9 µM
  TGI: 27.5 µM
[15]
  GI50: 18.1 µM
  TGI: 49.1 µM
[16]
  GI50: 2.78 µM
  TGI: 16.4 µM
[17]
  GI50: 15.6 µM
  TGI: 30.1 µM
[18]
  GI50: 6.79 µM
  TGI: 30 µM
[19]
  GI50: 5.36 µM
  TGI: 21.1 µM
[20]
  GI50: 5.2 µM
  TGI: 18.1 µM
[21]
  GI50: 12.5 µM
  TGI: 36.7 µM
[22]
  GI50: 6.45 µM
  TGI: 62.4 µM
[23]
  GI50: 19.5 µM
  TGI: 40 µM
[24]
  GI50: 15.6 µM
  TGI: 34.1 µM
[25]
  GI50: > 100 µM
  TGI: > 100 µM
[26]
  GI50: 5.76 µM
  TGI: > 100 µM
[27]
  GI50: 6.46 µM
  TGI: 19 µM
[28]
  GI50: 8.52 µM
  TGI: > 100 µM
[29]
  GI50: 18.3 µM
  TGI: 54.1 µM
[30]
  GI50: > 100 µM
  TGI: > 100 µM
[31]
  GI50: > 100 µM
  TGI: > 100 µM
[32]
  GI50: > 100 µM
  TGI: > 100 µM
[33]
  GI50: 15.3 µM
  TGI: 28.5 µM
[34]
  GI50: 6.55 µM
  TGI: 26.9 µM
[35]
  GI50: > 100 µM
  TGI: > 100 µM
[36]
  GI50: 26.3 µM
  TGI: 85.4 µM
[37]
  GI50: 26 µM
  TGI: > 100 µM
[38]
  GI50: 16.5 µM
  TGI: 40.9 µM
[39]
  GI50: 36.9 µM
  TGI: > 100 µM
[40]
  GI50: 2.27 µM
  TGI: 8.21 µM
[41]
  GI50: 13.8 µM
  TGI: 27.4 µM
[42]
  GI50: > 100 µM
  TGI: > 100 µM
[43]
  GI50: 28.1 µM
  TGI: 93.9 µM
[44]
  GI50: > 100 µM
  TGI: > 100 µM
[45]
  GI50: 56.4 µM
  TGI: > 100 µM
[46]
  GI50: 3.61 µM
  TGI: 17 µM
[47]
  GI50: 3.07 µM
  TGI: 10.9 µM
[48]
  GI50: > 100 µM
  TGI: > 100 µM
[49]
  GI50: 18.7 µM
  TGI: 37 µM
[50]
  GI50: 21.5 µM
  TGI: 44.3 µM
[51]
  GI50: 10.2 µM
  TGI: > 100 µM
[52]
  GI50: 35.8 µM
  TGI: > 100 µM
[53]
  GI50: 10.6 µM
  TGI: 22.4 µM
[54]
  GI50: 78.4 µM
  TGI: > 100 µM
[55]
  GI50: 18 µM
  TGI: 32.1 µM
[56]
  GI50: 10.8 µM
  TGI: 24 µM
[57]
  GI50: 6.88 µM
  TGI: 19.9 µM
[58]
  GI50: > 100 µM
  TGI: > 100 µM
[59]
  GI50: 45.7 µM
  TGI: > 100 µM
